Source: paper PMC10111420, “Optimization of Host Cell-Compatible, Antimicrobial Peptides Effective against Biofilms and Clinical Isolates of Drug-Resistant Bacteria” (ACS Infectious Diseases, 2023)
In brackets after ≈: the same amount, converted by molar mass. Read-outs that look alike come from different tables or passages of the source. Where a SMILES comes first, the peptide text is derived from it. [ ]: non-standard residue; d: D form. d(hArg) = N=C(N)NCCCC[C@@H](N)C(=O)O

Experiments:
[1] = tested on: K. pneumoniae clinical isolates; assay: microbe, parasite or virus in culture; details: Klebsiella pneumoniae
Experimental: (§1) Subcultures, prepared by inoculating 25 mL of fresh tryptic soy broth (TSB) with 200 μL of an overnight culture, were grown to log phase (OD600 = 0.3–0.6), after which cell counts were determined by measuring the OD600 (1.0 = 5 × 10^8 CFU/mL for E. coli, 4 × 10^8 CFU/mL for K. pneumoniae, 4 × 10^8 CFU/mL for P. aeruginosa, 1.5 × 10^8 CFU/mL for S. aureus). Bacterial cells were diluted to appropriate concentrations in TSB. We used the following clinical bacterial isolates of Klebsiella pneumoniae in this study: Strains KP6, KP46, NDM-1, KP396, and KP398 have been previously described.[43] ST58 strains C2, C3, and I2 are also described.[41] […] MRSA, […] S. aureus strain, is SAP400, a USA400 strain of community-acquired MRSA. […] The second independent set of K. pneumoniae isolates are previously described.[20],[21]
The antibiotics were serially diluted by a factor of 2:3 horizontally across 96-well plates from Corning, 25 μL per well. One column was reserved for controls. For the assays performed in the presence of RBC, type O+ human RBCs at 0 or 2.5 × 10^9 cells/mL were added in 50 μL aliquots to all wells. […] To assess bacterial growth in the assays with RBC, the OD600 was measured after a second-day inoculation with 10 μL of solution from the original plate added to 100 μL of sterile TSB followed by overnight incubation.
(§2) Experiments were repeated four to eight times independently, with pairs of replicate measurements on each 96-well plate. After overnight growth, optical densities were measured at 660 nm and the sterilized wells were identified by having O.D. < 0.08. Nonsterilized wells were nearly opaque with OD > 0.6. For each measurement, we recorded the largest dilution that sterilized the bacteria. Statistics are done on dilution numbers, rather than calculated concentrations, because only the former have normal distributions.

[2] = tested on: MRSA SAP400, a USA400 strain; assay: microbe, parasite or virus in culture; details: Staphylococcus aureus, read-out: MIC, MRSA USA400
Experimental: as §1
(§3) The antibiotics were serially diluted by a factor of 2:3 horizontally across 96-well plates from Corning, 25 μL per well. One column was reserved for controls. For the assays performed in the presence of RBC, type O+ human RBCs at 0 or 2.5 × 10^9 cells/mL were added in 50 μL aliquots to all wells. Following a 30-min incubation, 50 μL of TSB, inoculated with 5 × 10^5 CFU/mL, was added to all wells, and plates were incubated overnight at 37 °C. Following overnight incubation at 37 °C, the OD600 was measured (values of less than 0.1 were considered sterilized). To assess bacterial growth in the assays with RBC, the OD600 was measured after a second-day inoculation with 10 μL of solution from the original plate added to 100 μL of sterile TSB followed by overnight incubation.
as §2

[3] = tested on: Pseudomonas aeruginosa clinical isolates; assay: microbe, parasite or virus in culture; details: Pseudomonas aeruginosa
Experimental: as §1, §3, §2

[4] = tested on: Acinetobacter baumannii (PDR) Tulane isolate; assay: microbe, parasite or virus in culture; details: read-out: MIC, AB (PDR)Tulane
human RBCs = assay type: cell-based
Experimental: Human O+ erythrocytes were obtained from Interstate Blood Bank, Inc. Red blood cells were subjected to four or more cycles of centrifugation at 1000g with resuspension in fresh PBS. Following the final wash step, the supernatant was clear and colorless. RBC concentration was determined using a standard hemocytometer.
Peptide was serially diluted in PBS starting at a concentration of 100 μM. The final volume of peptide in each well was 50 μL. To each well, 50 μL of RBCs in PBS at 2 × 10^8 cells/mL was added. As a positive lysis control, 1% Triton was used. The mixtures were incubated at 37 °C for 1 h, after which they were centrifuged at 1000g for 5 min. After centrifugation, 10 μL of supernatant was transferred to 90 μL of DI H2O in a fresh 96-well plate. The absorbance of released hemoglobin at 410 nm was recorded, and the fractional hemolysis was calculated based on the 100 and 0% lysis controls. At least three independent experiments were performed. Results shown are averages.

[5] = tested on: WI-38 human fibroblast cells; assay: in vitro; assay type: cell-based
Experimental: The day before cytotoxicity experiments, the 10,000 cells/well were plated in a 96-well tissue-culture plate. […] To perform the cytotoxicity assay, media was removed from the wells and replaced with peptide solutions. […] The plate was read for SYTOX fluorescence every 5 min for an hour with an excitation wavelength of 504 nm and an emission wavelength of 523 nm. Percent cytotoxicity was calculated at 60 min using the 100 and 0% lysis controls. At least three independent experiments were averaged.

[6] = tested on: 14 clinical isolates of resistant bacterial strains; assay: Broth dilution, summary over the 14 clinical isolates of the first set; assay type: cell-based; details: statement for all 14 clinical isolates of the first set; read-out: MIC, all isolates (completely resistant)
Experimental: In Figure 4B, we plot the fraction of isolates sterilized as functions of antibiotic concentration.
as §1, §3

[7] = ATCC33495, read-out: MIC, KP ATCC 33495

For `CO/N=C(\C(=O)N[C@@H]1C(=O)N2C(C(=O)O)=C(CSc3nc(=O)c(=O)[nH]n3C)CS[C@H]12)c1csc(N)n1` [CRO, ceftriaxone], the MIC [1, 7] was 0.3 µM (≈ 0.166 µg/mL), the MIC ([1]; read-out: MIC, KP 6) was > 150 µM and the MIC ([1]; read-out: MIC, KP 46) was 1.9 µM (≈ 1.05 µg/mL). For the same compound, the MIC ([1]; read-out: MIC, KP 398) was 0.2 µM (≈ 0.111 µg/mL), the MIC ([1]; read-out: MIC, KP 2146NDM-1) was > 150 µM and the MIC ([1]; read-out: MIC, KP (CRE)) was 45 µM (≈ 25 µg/mL). For the same compound, the MIC ([1]; read-out: MIC, KP ST258 C2) was > 150 µM, the MIC ([1]; read-out: MIC, KP ST258 C3) was > 150 µM and the MIC ([1]; read-out: MIC, KP ST258 I2) was > 150 µM. The MIC ([1]; read-out: MIC, KP ST396) was 1.9 µM (≈ 1.05 µg/mL), the MIC [2] was > 150 µM and the MIC ([3]; read-out: MIC, PA(mucoid)) was 137 µM (≈ 76 µg/mL). The MIC ([3]; read-out: MIC, PA(non-mucoid)) was 89 µM (≈ 49.4 µg/mL) and the MIC [4] was > 150 µM.

In the case of `CC(C)C[C@@H](NC(=O)[C@@H](CCCCNC(=N)N)NC(=O)[C@@H](CCCCNC(=N)N)NC(=O)[C@@H](C)NC(=O)[C@@H](Cc1c[nH]c2ccccc12)NC(=O)[C@@H](CCCNC(=N)N)NC(=O)[C@H](N)CCCNC(=N)N)C(=O)N[C@H](C)C(=O)N[C@H](Cc1ccccc1)C(=O)N[C@H](C)C(=O)N[C@H](Cc1ccccc1)C(=O)N[C@H](CCCNC(=N)N)C(=O)N[C@H](CCCNC(=N)N)C(N)=O` [D-CONGA-HomoR] (H-[dR][dR][dW][dA][d(hArg)][d(hArg)][dL][dA][dF][dA][dF][dR][dR]-NH2; N-terminus and C-terminus assumed), the “Hemolysis at 100 μM (fractional hemolysis)” value (human RBCs) is reported as 0.06 and the EC50 [5] is reported as 143 µM.

`CC1(C)S[C@@H]2[C@H](NC(=O)[C@H](N)c3ccccc3)C(=O)N2[C@H]1C(=O)O` [AMP, ampicillin] was tested, and the MIC [2] was > 150 µM, the MIC ([3]; read-out: MIC, PA(mucoid)) was > 150 µM and the MIC ([3]; read-out: MIC, PA(non-mucoid)) was > 150 µM. For the same compound, the MIC [6] was > 150 µM and the MIC [4] was > 150 µM.

In the case of `NC[C@H]1O[C@H](O[C@H]2[C@H](O)[C@@H](O[C@H]3O[C@H](CO)[C@@H](O)[C@H](N)[C@H]3O)[C@H](N)C[C@@H]2N)[C@H](N)C[C@@H]1O` [TOB, tobramycin], the MIC [1, 7] is reported as 7.5 µM (≈ 3.51 µg/mL), the MIC ([1]; read-out: MIC, KP 6) is reported as > 150 µM and the MIC ([1]; read-out: MIC, KP 46) is reported as 3.5 µM (≈ 1.64 µg/mL). For the same compound, the MIC ([1]; read-out: MIC, KP 398) was 6.9 µM (≈ 3.23 µg/mL), the MIC ([1]; read-out: MIC, KP 2146NDM-1) was > 150 µM and the MIC ([1]; read-out: MIC, KP (CRE)) was > 150 µM. For the same compound, the MIC ([1]; read-out: MIC, KP ST258 C2) was > 150 µM, the MIC ([1]; read-out: MIC, KP ST258 C3) was > 150 µM and the MIC ([1]; read-out: MIC, KP ST258 I2) was > 150 µM. For the same compound, the MIC ([1]; read-out: MIC, KP ST396) was 4.6 µM (≈ 2.15 µg/mL), the MIC [2] was > 150 µM and the MIC ([3]; read-out: MIC, PA(mucoid)) was 4.2 µM (≈ 1.96 µg/mL). The MIC ([3]; read-out: MIC, PA(non-mucoid)) was 5.9 µM (≈ 2.76 µg/mL) and the MIC [4] was > 150 µM.

In the case of `CC(C)C[C@@H](NC(=O)[C@@H](CCCNC(=N)N)NC(=O)[C@H](N)CCCNC(=N)N)C(=O)N[C@H](C)C(=O)N[C@H](Cc1ccccc1)C(=O)N[C@H](C)C(=O)N[C@H](Cc1ccccc1)C(=O)N[C@H](CCCNC(=N)N)C(=O)N[C@H](CCCNC(=N)N)C(=O)N[C@H](Cc1c[nH]c2ccccc12)C(=O)N[C@H](C)C(=O)N[C@H](CCCNC(=N)N)C(=O)N[C@H](CCCNC(=N)N)C(N)=O` [D-CONGA-FLIP] (H-[dR][dR][dL][dA][dF][dA][dF][dR][dR][dW][dA][dR][dR]-NH2; N-terminus and C-terminus assumed), the “Hemolysis at 100 μM (fractional hemolysis)” value (human RBCs) is reported as 0.05 and the EC50 [5] is reported as 143 µM.

For `O=C(O)c1cn(C2CC2)c2cc(N3CCNCC3)c(F)cc2c1=O` [CIPRO, ciprofloxacin], the MIC [2] was 0.8 µM (≈ 0.265 µg/mL) and the MIC [4] was > 150 µM.
